What was measured:
arteriosclerosis = assay: Treatment of arteriosclerosis in human beings, oral administration; type: in vivo; conditions: 50 mg dose after every meal, study not completed
From the text: In order to treat arteriosclerosis by the use of the composition prepared according to the present invention, mammals and poultry are orally administered with the pharmaceutical composition prepared according to the present invention once or more a day. Especially, for human beings, it is preferable to administer the composition three times per day, after every meal. For animals other than human beings, the composition may be administered alone or by mixing it with feed. As stated above, the dose of the composition depends on the kind of animals to which it is to be administered and on the form of the composition. However, the dose ranges generally 0.05-500, preferably 0.5-50 mg/kg.body weight per day based on the ascochlorin derivative.

blood platelet = assay: Aggregation inhibition activity of blood platelet (ADP-induced, platelet rich plasma of orally dosed rats); type: in vivo, Wister-Imamich strain male rats; conditions: rat, 20 mg/kg oral, 6 hours; adenosine-5'-diphosphate 10^-5 M in platelet rich plasma
Experimental: In this Example Wister-Imamich strain male rats weighing 230 ± 30 g which had been bred with the use of a commercial chow, CLEA CE-2 were used.
The rats were divided into groups of five members each, and orally administered with a different ascochlorin derivative as a suspension in 2% gum arabic aqueous solution in a dose of 20 mg/kg.body weight. Six hours after the administration, the blood of each rat was sampled from the heart and after the addition of citric acid, the blood sample was centrifuged at 1,500 r.p.m. for 10 minutes to obtain platelet rich plasma. The anti-aggregation effect when the concentration of adenosine-5'-diphosphatein the platelet rich plasma is ultimately 10^^-5 M is shown in Table II.
As positive controls, ascochlorin, ethyl-α-(p-chlorophenoxy) isobutylate and acetyl salicyclic acid were used. The aggregation inhibition ratio was evaluated in percent by comparing the increase of transmission rate caused by the addition of adenosin-5'-diphosphate to platelet rich plasma of the control group (no medication) with that caused on the groups administered with an ascochlorin derivative which is calculated for 100.

Cholesterol in serum = assay: Serum cholesterol lowering activity in rats on high-fat feed, single oral dose; type: in vivo, Wister-Imamich strain male rats; conditions: rat, 75 mg/kg oral, 6 hours after administration
From the text: The cholesterol lowering activity of the ascochlorin derivatives of this invention was observed by the use of Wister-Imamich strain male rats weighing 230 ± 30 g which had been bred with the use of high-fat feed comprising 1000 g of powdery chow CLEA CE-2 (sold by NIHON CLEA KABUSHIKI KAISHA) admixed with 10 g of cholesterol, 95 g of hydrogenated coconut oil, 2 g of cholic acid, 150 g of milk casein and 671 g of sucrose.
The rats were divided into groups of five members each, and orally administered with a different ascochlorin derivative as a suspension in gum arabic aqueous solution in a dose of 75 mg/kg.body weight. The rats were kept from eating food, and 6 hours after the administration, the blood of each rat was sampled from its heart. The total amount of cholesterol in serum was determined by a modified Zurkowski method (Clinical Chemistry, 10, 451, 1964) with the use of a colorimeter for blood analysis (sold by KYOTO DAIICHI KAGAKU).

Serum Lipid = assay: Hypolipidemic activity: change in level of serum lipid, 30 days, high-fat feed; type: in vivo, Wister strain rats; conditions: rat; for Serum Cholesterol / Serum Free fatty acid / Serum Phospholipid / Serum Triglyceride / Serum β-Lipoprotein: average ± standard error
Acute toxicity, mouse = conditions: in vivo
From the text: (§1) Acute toxicity of the ascochlorin derivatives was observed by the use of Wister-Imamichi strain male rats weighing 230 ± 30 g and ddY strain male and female mice (5 weeks old) weighing 20 ±3 g which were divided into groups of 10 members each. Japanese native male rabbits weighing 2 kg ± 300 g which were divided into groups of five members each were also used. The test animals were orally or intraperitoneally administered with a different ascochlorin derivative as a suspension in 5% gum arabic aqueous solution, and the toxicity was compared with that of control in which ascochlorin was used.

Acute toxicity, rabbit = assay: Acute toxicity, rabbit; parameters: species or system Japanese native male rabbits; conditions: in vivo, male, oral
From the text: as §1

Acute toxicity, rat = conditions: in vivo, male
From the text: as §1

Lipid in liver and aorta = assay: Hypolipidemic activity: change of lipid level in organs and aorta abdominalis, 30 days, high-fat feed; type: in vivo, Wister strain rats; parameters: Cholesterol in Tunica intima of aorta abdominalis: unit not given here; conditions: rat; for Cholesterol in Liver / Cholesterol in Tunica intima of aorta abdominalis / Phospholipid in Liver / Triglyceride in Liver: average ± standard error
Experimental: Wister strain rats weighing 150 ± 20 g were divided into groups of 10 members each and bred with high-fat feed, the same as that used in Example 1. The rats were orally administered ascochlorin, 4-O-methylascochlorin or ethyl-α-(p-chlorophenoxy) isobutylate in a predetermined dose every morning for 30 days. Six hours after the last administration, liver and aorta of each rat were taken out and lipid level in the organs of each of the rats were determined. Lipid present in the liver and aorta was extracted with methanol-chloroform (1:1) by allowing it to stand overnight and the extract was assayed as to lipid level.

## COc1c(Cl)c(C)c(C=O)c(O)c1C/C=C(C)/C=C/C1(C)C(C)CCC(=O)C1C (stereo not drawn) [4-O-methylascochlorin]
arteriosclerosis
  effect in human beings: satisfactory effect
Blood platelet
  Aggregation Inhibition Ratio: 70.5%
Cholesterol in serum
  Cholesterol in serum: 76.6 mg/dL
Serum Lipid; 2.25 mg/kg oral
  Serum Cholesterol, increasing or reducing ratio based on the control: -4.2
  Serum Free fatty acid, increasing or reducing ratio based on the control: -2.4
  Serum Phospholipid, increasing or reducing ratio based on the control: -12.2
  Serum Triglyceride, increasing or reducing ratio based on the control: -6.8
  Serum β-Lipoprotein, increasing or reducing ratio based on the control: +7.3
  Serum Cholesterol: 102.4 ± 13.8 mg/dL
  Serum Free fatty acid: 49.1±8.2 μ eq./dl
  Serum Phospholipid: 119.7 ± 12.5 mg/dL
  Serum Triglyceride: 74.5 ± 9.8 mg/dL
  Serum β-Lipoprotein: 819 ± 109 mg/dL
Serum Lipid; 9 mg/kg or more, oral
  levels of all types of lipids: extremely lowered
Serum Lipid; 9.0 mg/kg oral
  Serum Cholesterol, increasing or reducing ratio based on the control: -18.6
  Serum Free fatty acid, increasing or reducing ratio based on the control: -10.4
  Serum Phospholipid, increasing or reducing ratio based on the control: -13.2
  Serum Triglyceride, increasing or reducing ratio based on the control: -19.0
  Serum β-Lipoprotein, increasing or reducing ratio based on the control: -22.3
  Serum Cholesterol: 87.0 ± 4.9 mg/dL
  Serum Free fatty acid: 44.8±3.5 μ eq./dl
  Serum Phospholipid: 118.4 ± 5.8 mg/dL
  Serum Triglyceride: 64.8 ± 5.2 mg/dL
  Serum β-Lipoprotein: 593 ± 85 mg/dL
Serum Lipid; 22.5 mg/kg oral
  Serum Cholesterol, increasing or reducing ratio based on the control: -16.9
  Serum Free fatty acid, increasing or reducing ratio based on the control: -16.3
  Serum Phospholipid, increasing or reducing ratio based on the control: -13.5
  Serum Triglyceride, increasing or reducing ratio based on the control: -20.5
  Serum β-Lipoprotein, increasing or reducing ratio based on the control: -22.8
  Serum Cholesterol: 88.8 ± 9.1 mg/dL
  Serum Free fatty acid: 42.1±2.7 μ eq./dl
  Serum Phospholipid: 117.9 ± 6.5 mg/dL
  Serum Triglyceride: 63.6 ± 4.6 mg/dL
  Serum β-Lipoprotein: 589 ± 133 mg/dL
Acute toxicity, mouse; ip, female
  LD50: 5500 mg/kg
Acute toxicity, mouse; ip, male
  LD50: 5000 mg/kg
Acute toxicity, mouse; po, female
  LD50: > 7300 mg/kg
Acute toxicity, mouse; po, male
  LD50: > 7300 mg/kg
Acute toxicity, rabbit
  LD50: > 2000 mg/kg
Acute toxicity, rat; ip
  LD50: 3100 mg/kg
Acute toxicity, rat; oral
  LD50: > 10000 mg/kg
Lipid in liver and aorta; 2.25 mg/kg oral
  Cholesterol in Liver, increasing or reducing ratio based on the control: +12.9
  Cholesterol in Tunica intima of aorta abdominalis, increasing or reducing ratio based on the control: -8.1
  Phospholipid in Liver, increasing or reducing ratio based on the control: +2.6
  Triglyceride in Liver, increasing or reducing ratio based on the control: -23.6
  Cholesterol in Liver: 38.4 ± 6.4 mg/g
  Cholesterol in Tunica intima of aorta abdominalis: 18.2±1.4
  Phospholipid in Liver: 72.0 ± 5.3 mg/g
  Triglyceride in Liver: 16.7 ± 1.3 mg/g
Lipid in liver and aorta; 9 mg/kg or more, oral
  amount of lipids in liver and cholesterol in aorta: remarkably reduced
Lipid in liver and aorta; 9.0 mg/kg oral
  Cholesterol in Liver, increasing or reducing ratio based on the control: -15.0
  Cholesterol in Tunica intima of aorta abdominalis, increasing or reducing ratio based on the control: -29.3
  Phospholipid in Liver, increasing or reducing ratio based on the control: -1.6
  Triglyceride in Liver, increasing or reducing ratio based on the control: -21.1
  Cholesterol in Liver: 28.9 ± 3.6 mg/g
  Cholesterol in Tunica intima of aorta abdominalis: 14.0±0.3
  Phospholipid in Liver: 69.1 ± 9.9 mg/g
  Triglyceride in Liver: 17.2 ± 2.8 mg/g
Lipid in liver and aorta; 22.5 mg/kg oral
  Cholesterol in Liver, increasing or reducing ratio based on the control: -21.8
  Cholesterol in Tunica intima of aorta abdominalis, increasing or reducing ratio based on the control: -32.8
  Phospholipid in Liver, increasing or reducing ratio based on the control: -12.0
  Triglyceride in Liver, increasing or reducing ratio based on the control: -22.1
  Cholesterol in Liver: 26.6 ± 2.2 mg/g
  Cholesterol in Tunica intima of aorta abdominalis: 13.3±0.4
  Phospholipid in Liver: 61.8 ± 4.3 mg/g
  Triglyceride in Liver: 17.0 ± 0.7 mg/g

Source: US3995061A, “Pharmaceutical composition and method of using the same” (Chugai Seiyaku Kabushiki Kaisha, priority 1974, dated 1976)
